Experimental data from US8574569B2, “Stabilized protease composition” (Trobio AB, priority 2005, dated 2013).
Read-outs that look alike come from different tables or passages of the source.

Experiments:
trypsin = target: T1, trypsin (Bos taurus, UniProt P00760); test: Stability of trypsin solutions (TAME substrate, T 70%); assay type: physicochemical; settings: for T 70%: 100 μg/ml trypsin in 10 mM HEPES, 0.13 M NaCl, pH 7.4, 37° C.; for increase in stabilization of trypsin, factor: T 70% relative to trypsin without additives, 37° C.
T1 construct: 100 μg/ml of trypsin (TPCK-treated, Sigma-Aldrich); purchased Sigma-Aldrich
T1 sequence (P00760 24-246): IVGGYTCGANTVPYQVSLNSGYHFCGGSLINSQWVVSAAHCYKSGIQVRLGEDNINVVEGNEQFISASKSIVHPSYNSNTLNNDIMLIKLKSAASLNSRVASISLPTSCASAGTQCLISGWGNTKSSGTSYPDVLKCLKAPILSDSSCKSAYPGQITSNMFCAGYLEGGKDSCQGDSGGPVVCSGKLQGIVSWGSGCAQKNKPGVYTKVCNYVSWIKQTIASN
Method: The stabilization of solutions of trypsin in accordance with the invention was tested. The activity of trypsin was determined using tosyl arginine methyl ester (TAME) as substrate and measuring the absorbance change at 247 nm in a spectrophotometer. Solutions containing 100 μg/ml of trypsin (TPCK-treated, Sigma-Aldrich) in 10 mM HEPES and 0.13 M NaCl, pH 7.4, as well as stabilizers as indicated in Table 3 below were incubated at 37° C., and samples were taken out at various time intervals for activity determination.

plasmin = target: T2, plasmin (Homo sapiens, UniProt P00747); test: Stability of plasmin solutions (Chromozym TH chromogenic substrate, T 70%); assay type: physicochemical; settings: for T 70%: 100 μg/ml plasmin in 10 mM HEPES, 0.13 M NaCl, pH 7.4, 37° C.; for increase in stability of plasmin composition, factor: T 70% relative to plasmin without additives, 37° C.
T2 construct: 100 μg/ml of plasmin (specific activity 3.2 units/mg, Sigma-Aldrich); purchased Sigma-Aldrich
T2 sequence (P00747 581-810 limits assumed, species assumed): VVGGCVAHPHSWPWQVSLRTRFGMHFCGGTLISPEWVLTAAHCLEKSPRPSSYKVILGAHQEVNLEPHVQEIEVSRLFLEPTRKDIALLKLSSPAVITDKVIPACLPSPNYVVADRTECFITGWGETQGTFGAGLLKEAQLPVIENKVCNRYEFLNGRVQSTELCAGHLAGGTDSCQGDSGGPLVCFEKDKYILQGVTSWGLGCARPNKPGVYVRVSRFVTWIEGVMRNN
T2 sequence (P00747 97-580 partner limits assumed, species assumed): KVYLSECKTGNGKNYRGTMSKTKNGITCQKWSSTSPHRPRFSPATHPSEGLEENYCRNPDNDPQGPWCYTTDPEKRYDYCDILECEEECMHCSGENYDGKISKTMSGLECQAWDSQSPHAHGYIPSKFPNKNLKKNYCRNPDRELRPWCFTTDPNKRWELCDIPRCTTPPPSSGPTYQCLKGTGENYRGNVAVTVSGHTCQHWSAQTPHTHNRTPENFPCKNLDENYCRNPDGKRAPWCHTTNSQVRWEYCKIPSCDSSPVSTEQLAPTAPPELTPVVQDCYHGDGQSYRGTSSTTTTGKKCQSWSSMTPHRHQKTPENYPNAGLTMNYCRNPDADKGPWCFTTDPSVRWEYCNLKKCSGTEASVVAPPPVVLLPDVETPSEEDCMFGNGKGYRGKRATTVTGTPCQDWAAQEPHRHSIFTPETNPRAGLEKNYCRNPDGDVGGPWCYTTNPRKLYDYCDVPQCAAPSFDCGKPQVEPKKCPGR
Method: The stabilization of solutions of plasmin in accordance with the invention was tested. The activity of plasmin was determined using chromogenic peptide substrate Chromozym TH (Pentapharm, Switzerland) and measurement of absorbance change at 405 nm in a spectrophotometer. Solutions containing 100 μg/ml of plasmin (specific activity 3.2 units/mg, Sigma-Aldrich) in 10 mM HEPES and 0.13 M NaCl, pH 7.4, as well as stabilizers as indicated in Table 2 below were incubated at 37° C., and samples were taken out at various time intervals for activity determination.

human thrombin [1] = target: T3, human thrombin (Homo sapiens, UniProt P00734); settings: for Apparent inhibition (%) / Apparent thrombin concentration (U/ml): 89 units/ml human thrombin, 0.01 M HEPES, 0.13 M NaCl, pH 7.4
Method: The clotting tests in this experimental setup were performed in 0.01 M HEPES, 0.13 M NaCl buffer of pH 7.4, which is according to standard procedure (EU Pharmacopeia). […] Solutions of various concentrations of morpholine were prepared in the HEPES buffer by adding a concentrated morpholine solution adjusted to pH 7.4.

human thrombin [2] = target: T3, human thrombin; test: Stability of human thrombin solutions (fibrinogen clotting activity decay curves, T 70%); assay type: physicochemical; design: The thrombin used in the study is human thrombin derived from plasma; purchased Biovitrum AB, Sweden; host or cells: human plasma
Method: This value, denoted “T 70%”, is chosen since it corresponds to what could be accepted as a maximum permitted loss in activity during a life span of a commercial product.
In the experimental studies, a high temperature (37° C.) has been used, as well as a high concentration of enzyme. This has been made in order to obtain stability data in reasonably short times, and not have to wait for months or years.
(§1) The clotting times were measured using an Amelungen Kc 1 coagulometer (Amelungen, Germany). […] From the values obtained, activity decay curves could be constructed.

human thrombin [3] = target: T3, human thrombin; test: as above; assay type: physicochemical; design: The thrombin used in the study is human thrombin derived from plasma; purchased Biovitrum AB, Sweden; host or cells: human plasma; settings: 1 mg/ml thrombin in 10 mM HEPES, 0.13 M NaCl, pH 7.4
bovine thrombin = target: T4, bovine thrombin (Bos taurus, UniProt P00735); test: Stability of bovine thrombin solutions (T 70%); assay type: physicochemical; settings: 0.4 mg/ml bovine thrombin (Baxter) in HEPES buffer, 37° C.
T4 construct: purchased Baxter
Method: as §1

[4] = time to reach 70% of initial activity, 1 mg/ml thrombin in 10 mM HEPES, 0.13 M NaCl, pH 7.4, 37° C.
[5] = T 70% relative to 1 mg/ml thrombin without additives, 37° C.

N=C(N)c1ccccc1 [benzamidine, reference compound]
T 70% (trypsin): 43 h | increase in stabilization of trypsin, factor (trypsin): 72 | T 70% (plasmin): 16 h

C1COCCN1 [morpholine]
Apparent inhibition (%) (human thrombin [1]; 0.05 M added): 4% | Apparent thrombin concentration (U/ml) (human thrombin [1]; 0.05 M added): 87 U/ml | Apparent inhibition (%) (human thrombin [1]; 0.10 M added): 20% | Apparent thrombin concentration (U/ml) (human thrombin [1]; 0.10 M added): 71 U/ml | Apparent inhibition (%) (human thrombin [1]; 0.15 M added): 45% | Apparent thrombin concentration (U/ml) (human thrombin [1]; 0.15 M added): 49 U/ml | Apparent inhibition (%) (human thrombin [1]; 0.20 M added): 43% | Apparent thrombin concentration (U/ml) (human thrombin [1]; 0.20 M added): 51 U/ml | inhibitor of thrombin (conclusion) (human thrombin [1]; clotting time prolongation ascribed to ionic strength): not an inhibitor of thrombin | T 70% (trypsin): 8 h | increase in stabilization of trypsin, factor (trypsin): 13 | T 70% (plasmin): 12 h | increase in stability of plasmin composition, factor (plasmin): 4 | T 70% (human thrombin [2]; [4]): 8.5 days

aminobenzamidine [reference compound]
T 70% (plasmin): 52 h | increase in stability of plasmin composition, factor (plasmin): 17 | increase in stabilization, factor (human thrombin [2]): 12.5 | T 70% (human thrombin [2]; pH 7.4): 20 days

O=C(O)CCCN1CCOCC1 [morpholino propyl carboxylic acid]
T 70% (human thrombin [2]; [4]): 4.1 days

thrombin
T 70% (human thrombin [3]; refrigerator storage (around 5° C.)): 36 days | T 70% (human thrombin [3]; room temperature (around 21° C.)): 5.4 days | T 70% (human thrombin [2]; 15.0 activity units/ml human thrombin in HEPES buffer, pH 7.4): 23 days

O=S(=O)(O)CCCN1CCOCC1 [MOPS, 3-(N-morpholino)propanesulfonic acid]
increase in stabilization, factor (human thrombin [2]; [5]): 4.7 | T 70% (human thrombin [2]; pH 7.4): 7.5 days

OCCN1CCOCC1 [morpholino ethyl alcohol]
T 70% (human thrombin [2]; [4]): 3.8 days

N-(2′-phenoxy)-4-aminopyridin
increase in stabilization, factor (human thrombin [2]; [5]): 22 | T 70% (human thrombin [2]; time to reach 70% of initial activity, 1 mg/ml thrombin in 10 mM HEPES, 0.13 M NaCl, pH 7.4, 37° C., listed as 1.9 mM N-(2′-phenoxy)-4-aminopyridin): 35 days | T 70% (human thrombin [2]; time to reach 70% of initial activity, 1 mg/ml thrombin in 10 mM HEPES, 0.13 M NaCl, pH 7.4, 37° C., listed as 3.1 mM N-(2′-phenoxy)-4-aminopyridin): 74 days

[Cl-].[Na+] [NaCl, reference compound]
Apparent inhibition (%) (human thrombin [1]; 0.05 M added): 17% | Apparent thrombin concentration (U/ml) (human thrombin [1]; 0.05 M added): 74 U/ml | Apparent inhibition (%) (human thrombin [1]; 0.10 M added): 40% | Apparent thrombin concentration (U/ml) (human thrombin [1]; 0.10 M added): 53 U/ml | Apparent inhibition (%) (human thrombin [1]; 0.15 M added): 34% | Apparent thrombin concentration (U/ml) (human thrombin [1]; 0.15 M added): 58 U/ml | Apparent inhibition (%) (human thrombin [1]; 0.20 M added): 37% | Apparent thrombin concentration (U/ml) (human thrombin [1]; 0.20 M added): 55 U/ml

bovine thrombin: bovine thrombin (Baxter), solution in HEPES buffer without additives
T 70% (bovine thrombin): 1.3 days

CCN(CC)CCN [N,N-diethylethylenediamine]
T 70% (plasmin): 8 h | increase in stability of plasmin composition, factor (plasmin): 2.7 | T 70% (human thrombin [2]; [4]): 10 days

O=S(=O)(O)CCN1CCOCC1 [morpholino ethyl sulphonic acid]
T 70% (human thrombin [2]; [4]): 3.2 days

O=S(=O)(O)CCCCN1CCOCC1 [morpholino butyl sulphonic acid]
T 70% (human thrombin [2]; [4]): 4.0 days
